Test results taken from US7304046B2, “Phosphoramide compounds” (priority 1999, dated 2007).

Legend:
HT-29 (colon) = test: Growth inhibition, MTT assay, HT-29; assay type: cell-based, human; details: HT-29, 72-h drug exposure, read-out: IC50 growth inhibitory activity
Description: (§1) The growth inhibitory properties of representative compounds of the invention were also determined by evaluating their growth inhibitory activity against a series of human tumor cell lines using a 72-h drug exposure. Cell counts were measured using the MTT assay.

BE cells = test: Test A: in vitro cytotoxicity, clonogenic survival of BE cells; assay type: cell-based; details: 2 h drug treatment, colonies after 10 days, concentration at which there is a 1% cell survival
Excerpt: (§2) Test A: In Vitro Cytotoxicity (Clonogenic Survival of HT-29 and BE Cells):
(§3) The human colon carcinoma cell line HT-29 was obtained from the American Type Culture Collection (ATCC), and the BE cell line was provided by Dr. D. Ross, University of Colorado. A modification of the procedure described by Miribelli et al Cancer Research, 1985, 45, 32–39 was used to determine the clonogenic survival of the cells. HT-29 and BE cells in exponential growth were suspended in unsupplemented Eagles MEM medium (10 mL) at a final density of 1.7–2×10^5 cells/mL. Unsupplemented medium contains Minimum Essential Medium (Gibco) and HEPES (0.02 M). The drug stock solutions (0.1–40 mM) were prepared using either ethanol or dimethyl sulfoxide as solvent. The maximum amount of DMSO or ethanol used in the drug treatments was 1% of the total volume. Appropriate volumes (6.5 to 100 μL) of the drug stock solution were added to five vials of the cell suspensions, to give five different final drug concentrations, and 100 μL of solvent was added to a sixth vial for a control. The treated cells were incubated for 2 h (37° C., 5% CO2). The cells were spun down and rinsed three times with supplemented medium (3 mL) and then diluted in 5 mL of supplemented medium. Supplemented medium is prepared by adding Fetal Bovine Serum (10%), gentamicin (0.05 mg/mL), L-glutamine (0.03 mg/mL), and sodium pyruvate (0.1 mM) to unsupplemented medium. The cells were counted using a Coulter Counter and then plated at 2–3 different densities for each drug concentration and incubated for 10 days. The colonies were stained with 0.5% crystal violet in 95% ethanol and those colonies comprised of 50 or more cells were counted using a microscope and pen-style counter. The LC99 of each compound (the concentration at which there is a 1% cell survival) was determined by plotting the log surviving fraction vs. drug concentration.

UMUC3 (bladder) = test: Growth inhibition, MTT assay, UMUC3; assay type: cell-based, human; details: UMUC3, 72-h drug exposure, read-out: IC50 growth inhibitory activity
Description: as §1

A498 (kidney) = test: Growth inhibition, MTT assay, A498; assay type: cell-based, human; details: A498, 72-h drug exposure, read-out: IC50 growth inhibitory activity
Description: as §1

IGROV (ovarian) = test: Growth inhibition, MTT assay, IGROV; assay type: cell-based, human; details: 72-h drug exposure, read-out: IC50 growth inhibitory activity
Description: as §1

A549 (lung) = test: Growth inhibition, MTT assay, A549; assay type: cell-based, human; details: A549, 72-h drug exposure, read-out: IC50 growth inhibitory activity
Description: as §1

human tumor cell lines = test: Growth inhibition, MTT assay, series of human tumor cell lines (all cell lines); assay type: cell-based; details: all cell lines of Table 2, 72-h drug exposure
Description: as §1

HT-29 cells = test: Test A: in vitro cytotoxicity, clonogenic survival of HT-29 cells; assay type: cell-based, human; details: 2 h drug treatment, colonies after 10 days, concentration at which there is a 1% cell survival
Excerpt: as §2, §3

PC-3 (prostate) = test: Growth inhibition, MTT assay, PC-3; assay type: cell-based, human; details: PC-3, 72-h drug exposure, read-out: IC50 growth inhibitory activity
Description: as §1

PaCa-2 (pancreas) = test: Growth inhibition, MTT assay, PaCa-2; assay type: cell-based, human; details: PaCa-2, 72-h drug exposure, read-out: IC50 growth inhibitory activity
Description: as §1

MDA231 (breast) = test: Growth inhibition, MTT assay, MDA231; assay type: cell-based, human; details: MDA231, 72-h drug exposure, read-out: IC50 growth inhibitory activity
Description: as §1

[1] = test system: A4982LM cell line, a sub-line of the A498 human kidney carcinoma; test: Xenograft model, human tumor cells subcutaneously in nude mice; assay type: in vivo; details: Day 38, single dose of 25 mg/kg subcutaneously
Description: The cytotoxic properties of a compound of the invention can also be determined using in vivo pharmacological models which are well known to the art. For example, compound 16a was tested in a xenograft model. This assay consisted of injecting nude mice subcutaneously with human tumor cells. The tumors were allowed to grow until a measurable mass was present (22 days), and a single dose of 16a was administered subcutaneously. The tumor size was measured periodically and the growth inhibition of the tumor was determined. The A4982LM cell line, a sub-line of the A498 human kidney carcinoma, was used for the xenograft assay. The A4982LM sub-line, which has a high DT-diaphorase level (1010 nmol cytochrome c reduced/min/mg protein), was developed by implanting the A498 cell line in mice and collecting the lung metastases that formed from the original tumor.

[2] = Nucleophilic activation with sodium dimethyldithiocarbamate (DDTC) monitored by 31P NMR; assay type: physicochemical; details: DDTC 3 equiv, 3:4 THF:0.4 M cacodylate buffer, pH ~7.3, RT
Description: The quinone was dissolved in CH3CN (0.3 mL, or THF for 16a) and the activating agent (glutathione, or sodium dithionite) was dissolved in cacodylate buffer (0.4 mL, 0.4 M, pH 7.7). The buffer solution was added to the organic solution and the pH of the mixture was adjusted to ˜7.4. The reaction mixture was transferred to a 5-mm NMR tube, and the data acquisition was started (pulse delay 30 μs). Spectra were taken every 2.5 minutes for 0.5 h, then every 5 min for 0.5 h, then every 10 min for 1 h, and time points for each spectrum were assigned from the initiation of the reaction. Chemical shifts are reported relative to the TPPO reference. The temperature of the probe was maintained at 37° C., if necessary, using the Bruker variable temperature unit. The relative concentrations of the intermediates were determined by measuring the peak areas.
The Michael addition of sulfur nucleophiles to naphthoquinones is well known; and addition to the 3-position of the quinone might provide another pathway for phosphorodiamidate anion release. Two possible products could be predicted from the Michael addition of a nucleophile to the naphthoquinone. […] Activation of 16a with DDTC (3 equiv, 3:4 THF:0.4 M cacodylate buffer, pH˜7.3, RT) was monitored using ^31P NMR. […]

## NP(=O)(OCC1=CC(=O)c2ccccc2C1=O)N(CCBr)CCBr (stereo not shown) [Compound 16a, 2-(1,4-Naphthoquinonyl)methyl N,N-bis(2-bromoethyl) phosphorodiamidate]
HT-29 (colon)
  IC50: 15.3 µM
BE cells
  LC99: 4.6 µM
UMUC3 (bladder)
  IC50: 2.82 µM
A498 (kidney)
  IC50: 15.6 µM
IGROV (ovarian)
  IC50: 18.9 µM
A549 (lung)
  IC50: 4.58 µM
Human tumor cell lines
  IC50 in words, against all cell lines: low micromolar range
HT-29 cells
  LC99: 7.8 µM
PC-3 (prostate)
  IC50: 9.19 µM
PaCa-2 (pancreas)
  IC50: 4.42 µM
MDA231 (breast)
  IC50: 14.7 µM
[1]
  growth inhibition of the tumor: 40%
[2]
  time until quinone resonance disappeared and was replaced by phosphorodiamidate anion resonance: ≤ 5 min
